# According to PubChem BioAssay AID179 (DTP/NCI, 2004):
# The source made the active and inactive calls.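 Rule for the calls: active = compounds giving half or more protection of infected cells from virus-caused growth loss, again on retest; inactive = the rest.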 Where a SMILES comes first, the peptide text is derived from it. [ ]: non-standard residue; d: D form. The star is where a group is joined. ξ: configuration not given here. X13 = COc1ccc(C(N*)c2ccc(OC)cc2)cc1; NMeF = CN[C@@H](Cc1ccccc1)C(=O)O; NMeD = CN[C@@H](CC(=O)O)C(=O)O; NMeV = CN[C@H](C(=O)O)C(C)C; ξNMeV = CNC(C(=O)O)C(C)C; Boc = CC(C)(C)OC(=O)*; ξNMeA = CNC(C)C(=O)O; ξV = CC(C)C(N)C(=O)O
# System: CEM cells HIV-1 protection, formazan growth assay
# Assay: NCI AIDS Antiviral Assay
# Details: for IC50: measured here: growth of uninfected CEM cells
# Outline: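 Steps: treat uninfected and HIV-1-infected human CEM cells at five drug levels; quantify growth by soluble formazan; retest any compound reaching 50% protection; classify actives from the retest.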
SMILES,EC50 [µM],IC50 [µM],outcome
COc1ccc(C(NC(=O)C[C@@H](C(=O)N(C)C(C)C(=O)O)N(C)C(=O)[C@@H]2CCCN2C(=O)[C@H](C(C)C)N(C)C(=O)C(C(C)C)N(C)C(=O)[C@H](Cc2ccccc2)N(C)C(=O)C(NC(=O)OC(C)(C)C)C(C)C)c2ccc(OC)cc2)cc1 (stereo partly drawn) (Boc-[ξV][NMeF][ξNMeV][NMeV]P[NMeD](X13)[ξNMeA]-OH),> 158,23.4,
CCOC(=O)[C@H]1Nc2ccc(C)cc2C2c3ccccc3CC21 (stereo partly drawn),> 17,> 17,
CC(=O)C1C(=O)C(=O)N(c2ccc([N+](=O)[O-])cc2)C1=O (stereo not drawn),> 200,> 200,
O=c1[nH]cnc2c1nnn2CCCCCCCCCCCCn1nnc2c(=O)[nH]cnc21,> 200,24,
CN1C(=O)C(=O)N2c3ccc(Cl)cc3C3(c4ccccc4)N=CC12O3 (stereo not drawn),> 36.3,5.5,
Nn1c(Cc2ccc(Cl)cc2)n[nH]c1=O,> 200,> 200,
COc1cc(C2(O)c3ccccc3C3=NCCN32)cc(OC)c1OC (stereo not drawn),> 200,> 200,
COC(=O)N/N=C(\C)C(CN1CCOCC1)C(c1ccccc1)c1cc2ccccc2oc1=O (stereo not drawn),> 83.2,61.7,
CC(C)(C)N=C(N)NC#N,> 200,> 200,
O=C1C=C(Nc2cccnc2)c2ccccc2C1=O,> 20.9,18.2,
CNc1cc(Cl)ccc1C(=O)N1CCC[C@H]1CO,> 200,191,
CCOC(=O)/C(=N\OC)C(O)C(F)(F)F (stereo not drawn),> 200,> 200,
O=C1C(=O)N(C(=O)c2ccc(Cl)c(Cl)c2)c2ccc(Cl)cc21,,,inactive
COC(=O)CNC(=O)/C=C/[C@H](O[Si](C)(C)C(C)(C)C)[C@H](/C=C/C(=O)NCC(=O)OC)O[Si](C)(C)C(C)(C)C,> 25.1,> 25.1,
NC(=O)C(=CNc1nc(-c2cccc([N+](=O)[O-])c2)cs1)C(N)=O,> 200,> 100,
CS(=O)(=O)C(=Cc1ccccc1Cl)S(C)(=O)=O,,,inactive
C/C(CCn1[nH]c(=O)ccc1=O)=N\OCCCc1ccccc1,> 417,> 417,
O=C(NCCC1([N+](=O)[O-])CCN(C(=O)c2ccccc2)CC1)c1ccccc1,,,inactive
O=C1c2ccccc2C(=O)C1(Br)C(Br)c1ccccc1 (stereo not drawn),> 200,2.57,
O=c1c(SCc2ccccc2)c(N2CCOCC2)cnn1-c1ccccc1,> 661,575,
Nc1ccc(Cn2ccc3c4c(N)nc(N)nc4ccc32)cc1,,,inactive
COC(=O)/C(=N\Nc1nnc(C)n1N)C(C#N)c1ccccc1 (stereo not drawn),> 575,93.3,
O=C(O)/C=C/CCC1SCC2NC(=O)NC21 (stereo not drawn),> 107,> 107,

SMILES,EC50 [µM],IC50 [µM],outcome
CC1=NC(=O)C(C)(c2ccccc2)N1CCc1ccccc1 (stereo not drawn),> 200,45.7,
O=C(O)/C=C\C(=O)NNC(=O)/C=C\C(=O)O,> 1100,> 1100,
COc1ccc2c(c1)CCN1CCCc3ccccc3C21 (stereo not drawn),> 200,26.9,
O=C1/C(=C\c2ccc([N+](=O)[O-])cc2)CS(=O)(=O)C/C1=C/c1ccc([N+](=O)[O-])cc1,> 0.2,0.0309,
CCOC(=O)Oc1ccc2[nH]c3c(C)cc(N)c(C)c3c2c1,> 93.3,39.8,
C=C1C(=O)OC2/C=C(\C)CC/C=C(\C)CC(OC(=O)/C(=C/CO)CO)[C@@H]12 (stereo partly drawn),> 200,0.933,
Cc1ccc(Nc2nnc(CSc3ccc(Cl)cc3)s2)c(S(=O)(=O)O)c1,> 200,148,
CCOC(=O)/C=C(\N=P(c1ccccc1)(c1ccccc1)c1ccccc1)C(F)(F)C(F)(F)C(F)(F)C(F)(F)C(F)(F)F,> 200,> 200,
CC(=O)OCC12C(OC(C)=O)C[C@@H](C)C3(CC(c4ccoc4)OC3=O)C1CCC(O)C21CO1 (stereo partly drawn),> 200,> 200,
N#C/C(=C\c1cccc2ccccc12)c1ccc(Cl)cc1,> 200,95.5,
O=C(/C=C\c1cccc2ccccc12)c1cccc2ccccc12,> 8.91,> 8.91,
Fc1ccc(C2SCc3nc4ccccc4n32)cc1 (stereo not drawn),,,inactive
Cc1nn(C(=O)c2ccncc2)c2c1C(c1ccccc1[N+](=O)[O-])SC(N)=N2 (stereo not drawn),,,inactive
C[C@H](O)CCC(=O)c1ccoc1,> 1480,> 1480,
O=C(/C(=C(/Br)I)c1ccccc1)c1ccccc1,> 200,27.5,
CCCCCCCCCCOCCC(=O)O,> 200,89.1,
COC(=O)C(C(=O)C(=O)Nc1nc(=S)[nH][nH]1)c1csc(N)n1 (stereo not drawn),> 724,> 724,
CC1(C)CC(=O)c2c(nc3c(ccc4ccccc43)c2-c2ccc(NC(=O)CCCCC(=O)Nc3ccc(-c4c5c(nc6c4ccc4ccccc46)CC(C)(C)CC5=O)cc3)cc2)C1,> 100,20,
COc1cc2oc(=O)ccc2cc1CC=C(C)C,> 40.7,> 40.7,
CCOC(=O)c1nc2cc(C(F)(F)F)ccc2nc1Oc1ccc(OC)cc1,> 200,174,
COC1=CC(=O)C2C(C1=O)C(c1ccccc1)[C@H]2C (stereo partly drawn),> 372,22.9,
CC1(C)OOC(O)C=C1c1ccccc1 (stereo not drawn),> 126,> 126,
CNC(=O)OC(COC)CN1CCN(c2ccccc2C)CC1 (stereo not drawn),> 200,> 200,

SMILES,EC50 [µM],IC50 [µM],outcome
COc1ccc(C(=O)N2CCN(c3ccc4c(c3)OCC(=O)N4)CC2)cc1OC,> 200,> 200,
COc1cccc(C2c3cc4c(cc3OC(N3CCCCC3)C2C)OCO4)c1OC (stereo not drawn),> 200,1.7,
C=CCc1cc2c(cc1COCOCCOCCOCCCC)OCO2,> 200,44.7,
O=S(=O)(Nc1nnc2ccc3ccccc3n12)c1ccc(F)cc1S,> 200,110,
O=S(=O)(O)Cc1ccc([As](=O)(O)O)cc1,> 200,129,
CC1(C)C(=O)C(C)(C)C1O,> 1780,> 1780,
O=c1c(SSc2coc3ccccc3c2=O)coc2ccccc12,> 200,5.13,
O=C(N/N=C(/c1ccccc1)C(F)(F)F)c1ccncc1,> 200,> 200,
O=[N+]([O-])c1ccc2nc(/C=C(\O)c3ccc(Cl)cc3)c(/C=C(\O)c3ccc(Cl)cc3)nc2c1,> 200,89.1,
O=C(Nc1cccc([N+](=O)[O-])c1)OCc1ccc2c(c1)OCO2,,,inactive
NC(=O)CCC(CCC(N)=O)(CCC(N)=O)[N+](=O)[O-],> 200,> 200,
O=C1CSc2ncccc2N1c1ccc([N+](=O)[O-])cn1,> 200,> 200,
ONC1=Nc2ccccc2OCc2cc(Br)c(Br)cc2COc2ccccc2N=C1NO,> 200,10,
CNc1nc(SC)nc2c1S(=O)(=O)N=CN2,> 263,> 263,
N#CC(/C(=N/NC(=O)C(=O)NN)C(=O)NC12CC3CC(CC(C3)C1)C2)c1ccccc1 (stereo not drawn),> 155,> 155,
CN(C)CN1C(=O)S/C(=C2\C(=O)N(C)c3ccc(Br)cc32)C1=O,> 200,24,
O=C(/C=C/c1cc(F)ccc1F)OCCc1ccccc1,,141,inactive
CC(C)COC(=O)c1ccc(N)cc1,> 200,> 200,
CSc1nc2nccnc2c(=O)[nH]1,> 1290,> 1290,
CC(C)N1[C@@H]2CCCC[C@H]2N(C(C)C)[P+]1=O,> 200,> 200,
Cc1occc1C(=S)Nc1ccc(Cl)c(C(=O)OC2CCCCC2)c1,0.012,7.24,
N/N=C(\N)SCc1ccc(N=C=S)cc1,,,inactive
CC(=O)OCC1OC([n+]2c([O-])cc(=O)n3ccsc32)C(OC(C)=O)C1OC(C)=O (stereo not drawn),> 589,> 589,

SMILES,EC50 [µM],IC50 [µM],outcome
CCC(=O)NC(Nc1cc(C)on1)(C(F)(F)F)C(F)(F)F,> 200,> 200,
Cc1cc(C)n(-c2ccnc3cc(Cl)ccc23)n1,> 501,214,
Cc1nn(C(=O)c2ccccc2O)c2c1C(c1ccc([N+](=O)[O-])cc1)SC(N)=N2 (stereo not drawn),> 2,0.389,
NC(N)=NCc1ccc2c(c1)OCO2,> 200,166,
CCOC(=O)c1ccc(CS(=O)c2ccc(C)cc2)c([N+](=O)[O-])c1 (stereo not drawn),> 74.1,14.5,
O=C(N/N=C/c1cccc(O)c1O)N/N=C/c1cccc(O)c1O,> 200,6.76,
COc1cc2c(c(OC)c1OC)C(=O)[C@@H](OC(=O)CCCCl)[C@H]2N,> 200,> 200,
CCC1(NC(=O)CN)C(=O)NC(=O)NC1=O,> 200,> 200,
O=c1c2ccc(Cl)cc2oc2c(CSc3ccccc3)cccc12,> 200,9.77,
CC(=O)OC12CCCCC(CCCC1)O2,> 200,> 200,
Cc1ccccc1C(=O)NC(O)(C(F)(F)F)C(F)(F)F,,,inactive
COc1ccc2c(c1OC)Oc1c(OC)ccc3c1C(C2)NCC3 (stereo not drawn),> 170,> 100,
CCCCCC1=C(c2ccc(OC)c(S(=O)(=O)N(C)C)c2)c2cc(S(=O)(=O)N(C)C)c(OC)cc2S1(=O)=O,> 32.4,> 32.4,
CCOC(=O)/C(C#N)=C/c1ccccc1F,> 309,> 309,
CCOP(=O)(OCC)/C(C#N)=C/c1cccc(C)c1,> 339,> 339,
Cc1cc(=O)n(-c2ccccc2)c(=O)o1,,,inactive
O=C(CP(c1ccccc1)c1ccccc1)c1cccc(C(=O)CP(c2ccccc2)c2ccccc2)c1,> 200,33.1,
Cc1nn(-c2ccccc2)c2nc3ccc(Cl)cc3c(-c3ccccc3)c12,> 200,> 200,
CN(C)c1ccc(/C=C(\C#N)c2cccc(Cl)c2)cc1,> 200,0.0631,
Nc1ccc(/C=C/c2ccc(NC(=O)c3cc(S(=O)(=O)O)c4cccnc4c3O)cc2S(=O)(=O)O)c(S(=O)(=O)O)c1,58.9,> 200,
